In patent publication US4657927A, “Malonato platinum compounds” (Research Corporation, priority 1983, dated 1987):

Key:
Sarcoma 180 [1] = test: Antitumor activity, solid sarcoma 180 tumor, T/C of tumor weights at day 10 (Table I); type: in vivo, female Swiss white mice
Experimental: The compounds of the invention were tested for antitumor activity, i.e., for sensitivity to a planar dsp^2 platinum(II) coordination compound or an octahedral d^2 sp^3 platinum(IV) coordination compound using our standard screening tumor, solid sarcoma 180 tumor in female Swiss white mice, following standard protocols for this testing as set by the National Cancer Institute. (Cancer Chemotherapy Rep., 25 (1962)).
For these tests an S 180 tumor taken from a sacrificed mouse was disected free of superfluous tissue and cut under sterile conditions into approximately 10 milligram size pieces. These tissue pieces were then implanted by trocar in the left axillary region, subcutaneously, in new mice. The mice were, on the average, approximately four weeks old and weighed 18-20 grams. Taking day 0 as the day of implant, the animals were sacrificed on day 10. The tumors were excised and weighed and the ratio of the weights of the tumors in mice in the treated animals to the control set of animals was obtained. This ratio, multiplied by 100, is given as the T/C ratio in Table I.
For the first set of tests the coordination compound was freshly dissolved in sterile distilled water and injected intraperitoneally on day 1 into each of the test mice. The volume of the injection was usually 1/2 ml. In some cases, in order to get an active dose into the animal where the chemical was not soluble in this amount of solvent, a fine dispersion was prepared of the dose needed for the test. Thus, some of our test results were obtained on animals where a slurry of the compound was injected. These are so noted in Table I below. In addition, for some of the compounds, there was injected about 1 ml of solution, either in one single injection, or in 2 injections given a few hours apart of 1/2 ml each. These injections were initially given in 4 different dose levels for each new compound with 6 mice in each dose level. The tests covered a dose range from a low ineffective dose, to an upper dose level which produced some deaths within the time period of the experiment.

Sarcoma 180 [2] = test: Large Sarcoma 180 regressions, injection on day 8 (Table II); type: in vivo, female Swiss white mice; conditions: single i.p. injection on day 8, H2O solution
Experimental: In addition to the day 1 injections described above, in a number of case injections were delayed until day 8 of tumor growth. In these cases the tumor was usually at least larger than 1/2 gm, as estimated by palpation. The animals were then injected and observed for a period of approximately 60 days. Activity was measured by the number of animals whose tumors had regressed to the vanishing point, while still allowing the animal to survive for this time period. Such test results are described in TABLE II below.

L1210 = test: Confirmatory antitumor test at the National Cancer Institute, L1210 (Table IV); type: in vivo, Mice
Excerpt: Samples of the malonato diammine and malonato ethylene diamine complexes of platinum(II) were submitted to the Drug Research and Development Branch of the National Cancer Institute for screening for antitumor activity against the L1210 tumor in mice. They confirm the activity of the compounds of the invention.

[3] = tested on: Walker 256 Carcinosarcoma; test: Confirmatory antitumor test, Walker 256 Carcinosarcoma (Table III); type: in vivo, Rat; conditions: single injection day 1 in oil, i.p.
Experimental: (§1) Confirmatory tests of antitumor activity against the Walker 256 Carcinosarcoma in rats, and the ADJ/PC6A tumor in mice were conducted. The initial test results are shown in Table III and confirm the potent action of the compounds of the invention against these other tumor systems.

ADJ/PC6A = test: Confirmatory antitumor test, ADJ/PC6A tumor (Table III); type: in vivo, Mouse; conditions: single injection day 25 in oil, i.p.
Experimental: as §1

[4] = 10 mg/kg, single i.p. injection day 1, solution in H2O
[5] = 20 mg/kg, single i.p. injection day 1, solution in H2O
[6] = 40 mg/kg, single i.p. injection day 1, solution in H2O
[7] = 45 mg/kg, single i.p. injection day 1, solution in H2O
[8] = 50 mg/kg, single i.p. injection day 1, solution in H2O
[9] = 55 mg/kg, single i.p. injection day 1, solution in H2O
[10] = 60 mg/kg, single i.p. injection day 1, solution in H2O
[11] = 80 mg/kg, single i.p. injection day 1, solution in H2O
[12] = dose level 60 (unit not given), single i.p. injection day 1
[13] = dose level 100 (unit not given), single i.p. injection day 1
[14] = dose level 120 (unit not given), single i.p. injection day 1

NCCN.O=C([O-])CC(=O)[O-].[Pt+2] [malonatoethylenediamineplatinum (II)]
No. of Deaths (Sarcoma 180 [1]; [4]): 0
T/C (Sarcoma 180 [1]; [4]): 88
No. of Deaths (Sarcoma 180 [1]; [5]): 0
T/C (Sarcoma 180 [1]; [5]): 58
No. of Deaths (Sarcoma 180 [1]; [6]): 0
T/C (Sarcoma 180 [1]; [6]): 18
No. of Deaths (Sarcoma 180 [1]; [7]): 0
T/C (Sarcoma 180 [1]; [7]): 49
No. of Deaths (Sarcoma 180 [1]; [8]): 0
T/C (Sarcoma 180 [1]; [8]): 35
No. of Deaths (Sarcoma 180 [1]; [9]): 0
T/C (Sarcoma 180 [1]; [9]): 38
No. of Deaths (Sarcoma 180 [1]; [10]): 3/6
T/C (Sarcoma 180 [1]; [10]): 15
No. of Deaths (Sarcoma 180 [1]; [11]): 3/6
T/C (Sarcoma 180 [1]; [11]): 24
No. of Deaths (Sarcoma 180 [1]; [12]): 0
T/C (Sarcoma 180 [1]; [12]): 80
No. of Deaths (Sarcoma 180 [1]; dose level 80 (unit not given), single i.p. injection day 1): 0
No. of Deaths (Sarcoma 180 [1]; [13]): 0
T/C (Sarcoma 180 [1]; [13]): 85
No. of Deaths (Sarcoma 180 [1]; [14]): 0
T/C (Sarcoma 180 [1]; [14]): 50
Deaths (Sarcoma 180 [2]; 40 mg/kg): 3
Total Number of Regressions (Sarcoma 180 [2]; 40 mg/kg): 3
Deaths (Sarcoma 180 [2]; 45 mg/kg): 5
Total Number of Regressions (Sarcoma 180 [2]; 45 mg/kg): 1
Deaths (Sarcoma 180 [2]; 50 mg/kg): 4
Total Number of Regressions (Sarcoma 180 [2]; 50 mg/kg): 2
Deaths (Sarcoma 180 [2]; 60 mg/kg): 3
Total Number of Regressions (Sarcoma 180 [2]; 60 mg/kg): 3
% Increase in Lifespan (L1210; 11 mg/kg, daily injections days 1-9, i.p. (repeat test)): 145%
% Increase in Lifespan (L1210; 12.5 mg/kg, daily injections days 1-9, i.p.): 151%
% Increase in Lifespan (L1210; 16.5 mg/kg, daily injections days 1-9, i.p. (repeat test)): 160%
% Increase in Lifespan (L1210; 25 mg/kg, daily injections days 1-9, i.p.): 160%
% Increase in Lifespan (L1210; 25 mg/kg, daily injections days 1-9, i.p. (repeat test)): 196%
% Increase in Lifespan (L1210; 37.5 mg/kg, daily injections days 1-9, i.p. (repeat test)): 121%
% Increase in Lifespan (L1210; 50 mg/kg, daily injections days 1-9, i.p.): 101%
% Inhibition ([3]; dose 10 (unit not given)): 1%
Deaths ([3]; dose 10 (unit not given)): 0
% Inhibition ([3]; dose 20 (unit not given)): 25%
Deaths ([3]; dose 20 (unit not given)): 0
% Inhibition ([3]; dose 40 (unit not given)): 100%
Deaths ([3]; dose 40 (unit not given)): 0
% Inhibition ([3]; dose 80 (unit not given)): 100%
Deaths ([3]; dose 80 (unit not given)): 0
Deaths ([3]; dose 160 (unit not given)): all
% Inhibition (ADJ/PC6A; dose 4 (unit not given)): 1.3%
Deaths (ADJ/PC6A; dose 4 (unit not given)): 0
% Inhibition (ADJ/PC6A; dose 20 (unit not given)): 94%
Deaths (ADJ/PC6A; dose 20 (unit not given)): 0
% Inhibition (ADJ/PC6A; dose 100 (unit not given)): 100%
Deaths (ADJ/PC6A; dose 100 (unit not given)): 0
Deaths (ADJ/PC6A; dose 500 (unit not given)): all
